The text below walks through data of US9340537B2, “Benzamide derivatives for inhibiting the activity of ABL1, ABL2 and BCR-ABL1” (NOVATIS AG, priority 2012, dated 2016).

pIC50: −log10 of the molar value. Read-outs that look alike come from different tables or passages of the source. Some results are limits rather than exact numbers.

For test [1], the system named is Ba/F3-BCR-ABL1-T315I cells. Kind of test: Proliferation assay Ba/F3-BCR-ABL1-T315I cells. The test is classed as cell-based, murine. The following applies: Mus musculus; for pIC50: 48 hours, Britelite luminescence, read-out: Ba/F3-BCR-ABL1-T315I IC50.
Source text: (§1) The murine bone marrow-derived cell line Ba/F3 was used to generate the appropriate cell line models. […] These cells are referred to as Ba/F3-WT.
(§2) To generate Ba/F3 cells that depend on BCR-ABL1 expression for growth and survival, Ba/F3 cells were engineered to express BCR-ABL1 using retroviral transduction with a MSCV based retroviral vector containing a p210 BCR-ABL1expression cassette. […] These cells are referred to as Ba/F3-BCR-ABL-WT. […] These cells are referred to as Ba/F3-BCR-ABL-T315I.
(§3) Ba/F3-WT cells were maintained in RPMI1640 media with L-glutamine, HEPES (Lonza), 10% FBS (Gibco) and 5 ng/ml IL-3 (Calbiochem). Ba/F3-BCR-ABL1-WT cells and Ba/F3-BCR-ABL1-T315I cells were maintained in RPMI1640 media with L-glutamine, HEPES (Lonza) and 10% FBS (Gibco).
(§4) For each cell line, the cell density was adjusted to 50 000 cells/mL and 50 μL (2500 cells) added per well of a 384-well assay plate.
(§5) Test compounds were resuspended in DMSO at a concentration of 10 mM. A serial three-fold dilution of each compound with DMSO was performed in 384-well plates using the Janus Liquid Dispenser (PerkinElmer). Compound was delivered to the assay plates containing 2500 cells in a 50 μL volume via Acoustic delivery from an ATS-100 (EDC).
(§6) Cells were incubated at 37° C. in a humidified environment with 5% carbon dioxide for 48 hours. Britelite plus solution (Perkin Elmer) was prepared according to the manufacturer's instructions and 25 μL added to each well of the assay plate. […] The degree of luminescence correlates with the number of cells in each well. The effect of each inhibitor concentration can therefore be calculated and IC50 values generated.
In test [2] the target is T1, ABL1 (64-515) (Homo sapiens (Human), UniProt P00519). Kind of test: Radio ABL1 (64-515) radiometric filter-binding kinase assay. Format: biochemical. Conditions: 20 μM ATP.
T1 sequence (P00519 64-515): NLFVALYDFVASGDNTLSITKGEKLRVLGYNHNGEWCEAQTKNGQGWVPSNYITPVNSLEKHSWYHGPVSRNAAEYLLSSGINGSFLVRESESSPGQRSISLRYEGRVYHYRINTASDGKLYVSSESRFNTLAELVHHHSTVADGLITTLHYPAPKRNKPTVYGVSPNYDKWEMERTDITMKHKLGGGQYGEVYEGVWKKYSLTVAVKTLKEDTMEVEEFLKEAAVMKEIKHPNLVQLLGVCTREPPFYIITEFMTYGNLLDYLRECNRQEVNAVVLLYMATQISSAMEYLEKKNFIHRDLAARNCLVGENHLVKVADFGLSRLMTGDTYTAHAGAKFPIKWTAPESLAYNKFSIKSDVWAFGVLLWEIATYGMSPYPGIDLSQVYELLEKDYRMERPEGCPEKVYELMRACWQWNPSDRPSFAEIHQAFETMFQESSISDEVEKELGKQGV
Procedure: Pre-incubation of enzyme with compounds (when stated) was performed by exposing the enzyme to compounds prior to addition of the substrate mixture (ATP and/or peptide substrate). […] Filter-plates were washed 3× with 0.5% H3PO4, followed by addition of 30 μL scintillation cocktail (Microscint, Perkin Elmer) per well and then analysed in a TopCount NXT scintillation counter (Perkin Elmer). Results were expressed as IC50 values.
A further test has as its system Ba/F3-BCR-ABL1-WT cells. Kind of test: Proliferation assay Ba/F3-BCR-ABL1-WT cells. The test is classed as cell-based, murine. Conditions: Mus musculus; for pIC50: 48 hours, Britelite luminescence, read-out: Ba/F3-BCR-ABL1-WT IC50.
For test [3], the target named is T1, ABL1 (64-515). As to the kind of experiment: Caliper ABL1 (64-515) microfluidic mobility shift kinase assay. The following applies: read-out: Caliper ABL1 (64-515) IC50.
For the next test, the system named is BCR-ABL1+KCL-22 cells. Kind of test: Acquired resistance in BCR-ABL1+KCL-22 cells in vitro. Format: cell-based. Conditions: single agent, cells treated every 3-4 days.

Source text for Ba/F3-BCR-ABL1-WT cells: as §1, §2, §3, §4, §5, §6

With `O=C(Nc1ccc(OC(F)(F)Cl)cc1)c1cnc(N2C[C@H](O)[C@@H](F)C2)c(-c2ccn[nH]2)c1` (relative stereo) [Example 75, N-(4-(Chlorodifluoromethoxy)phenyl)-6-(trans-3-fluoro-4-hydroxypyrrolidin-1-yl)-5-(1H-pyrazol-5-yl)nicotinamide], the pIC50 in test [1] was 7.77; at ABL1 (64-515) [2], 8.52; with Ba/F3-BCR-ABL1-WT cells, 8.92; on ABL1 (64-515) [3], 9.30.
For `O=C(Nc1ccc(OC(F)(F)F)cc1)c1cnc(N2CC[C@@H](O)C2)c(-c2ccc[nH]2)c1` [Example 6, (R)-6-(3-Hydroxypyrrolidin-1-yl)-5-(1H-pyrrol-2-yl)-N-(4-(trifluoromethoxy)phenyl)nicotinamide], in that order: 6.97, 8.05, 8.35 and 8.89.
As for `O=C(Nc1ccc(OC(F)(F)F)cc1)c1cnc(N2CC[C@@H](O)C2)c(-c2ccoc2)c1` [Example 7, (R)-5-(Furan-3-yl)-6-(3-hydroxypyrrolidin-1-yl)-N-(4-(trifluoromethoxy)phenyl)nicotinamide], the values for the pIC50 (in test [1]; on ABL1 (64-515) [2]; in the test on Ba/F3-BCR-ABL1-WT cells) were 6.17, above 8.52 and 8.23, respectively.
As to `O=C(Nc1ccc(OC(F)(F)F)cc1)c1cnc(N2CC[C@@H](O)C2)c(-c2cncs2)c1` [Example 10, (R)-6-(3-Hydroxypyrrolidin-1-yl)-5-(thiazol-5-yl)-N-(4-(trifluoromethoxy)phenyl)nicotinamide], the pIC50 in test [1] was 7.30; at ABL1 (64-515) [2] it was 8.28; in the test on Ba/F3-BCR-ABL1-WT cells, 8.60; at ABL1 (64-515) [3] it was 9.30.
On to `C[C@@]1(O)CCN(c2ncc(C(=O)Nc3ccc(OC(F)(F)F)cc3)cc2-c2ccn[nH]2)C1` [Example 14, (R)-6-(3-Hydroxy-3-methylpyrrolidin-1-yl)-5-(1H-pyrazol-5-yl)-N-(4-(trifluoromethoxy)phenyl)nicotinamide], for which the IC50 in test [1] (48 h, read-out: Ba/F3-BCR-ABL1-T315I IC50 [μM]) was determined as 0.134 µM; in the test with Ba/F3-BCR-ABL1-WT cells (48 h, read-out: Ba/F3-BCR-ABL1-WT IC50 [μM]), 0.0048 µM.
In the case of `O=C(Nc1ccc(OC(F)(F)Cl)cc1)c1cnc(N2CC[C@@H](O)C2)c(-c2ccc[nH]2)c1` [Example 22, (R)—N-(4-(Chlorodifluoromethoxy)phenyl)-6-(3-hydroxypyrrolidin-1-yl)-5-(1H-pyrrol-2-yl)nicotinamide], the pIC50 is 7.57 in test [1], 8.62 on ABL1 (64-515) [2], 9.10 in the test with Ba/F3-BCR-ABL1-WT cells and above 9.89 on ABL1 (64-515) [3].
For `N#Cc1ccc(-c2cc(C(=O)Nc3ccc(OC(F)(F)F)cc3)cnc2N2CC[C@@H](O)C2)[nH]1` [Example 30, (R)-5-(5-Cyano-1H-pyrrol-2-yl)-6-(3-hydroxypyrrolidin-1-yl)-N-(4-(trifluoromethoxy)phenyl)nicotinamide], in that order: 7.66, 8.22, 8.96 and 9.15.
For the compound `N#Cc1ccc(-c2cc(C(=O)Nc3ccc(OC(F)(F)Cl)cc3)cnc2N2CC[C@@H](O)C2)[nH]1` [Example 45, (R)—N-(4-(Chlorodifluoromethoxy)phenyl)-5-(5-cyano-1H-pyrrol-2-yl)-6-(3-hydroxypyrrolidin-1-yl)nicotinamide], the pIC50 in test [1] was 7.89; at ABL1 (64-515) [2], 8.40; in the test on Ba/F3-BCR-ABL1-WT cells it was 9.22; at ABL1 (64-515) [3], 9.15.
The like results for `O=C(Nc1ccc(OC(F)(F)Cl)cc1)c1cnc(N2CCCC3(CCN3)C2)c(-c2ccn[nH]2)c1` (stereo not drawn) [Example 61, N-(4-(Chlorodifluoromethoxy)phenyl)-5-(1H-pyrazol-5-yl)-6-(1,6-diazaspiro[3.5]nonan-6-yl)nicotinamide] were, in that order, 5.98, 8.52, 7.31 and 8.35.
`CC1(O)CN(c2ncc(C(=O)Nc3ccc(OC(F)(F)F)cc3)cc2-c2ncc[nH]2)C1` [Example 69, 6-(3-Hydroxy-3-methylazetidin-1-yl)-5-(1H-imidazol-2-yl)-N-(4-(trifluoromethoxy)phenyl)nicotinamide]: the pIC50 in test [1] was 6.40; on ABL1 (64-515) [2] it was 9.70; in the test with Ba/F3-BCR-ABL1-WT cells it was 7.61; at ABL1 (64-515) [3] it was 9.70.
Consider `O=C(Nc1ccc(OC(F)(F)F)cc1)c1cnc(N2CC[C@@H](O)C2)c(-c2ncc[nH]2)c1` [Example 70, (R)-6-(3-Hydroxypyrrolidin-1-yl)-5-(1H-imidazol-2-yl)-N-(4-(trifluoromethoxy)phenyl)nicotinamide], for which the pIC50 in test [1] was 6.97; in the test on Ba/F3-BCR-ABL1-WT cells it was 8.24; on ABL1 (64-515) [3], 8.19.
The like results for `O=C(Nc1ccc(OC(F)(F)Cl)cc1)c1cnc(N2CC[C@@H](O)C2)c(-c2ncc[nH]2)c1` [Example 71, (R)—N-(4-(Chlorodifluoromethoxy)phenyl)-6-(3-hydroxypyrrolidin-1-yl)-5-(1H-imidazol-2-yl)nicotinamide] were, in that order, 8.10, 8.96 and 9.40.
For the compound `Cc1cnc(-c2cc(C(=O)Nc3ccc(OC(F)(F)F)cc3)cnc2N2CC[C@@H](O)C2)[nH]1` [Example 72, (R)-6-(3-Hydroxypyrrolidin-1-yl)-5-(5-methyl-1H-imidazol-2-yl)-N-(4-(trifluoromethoxy)phenyl)nicotinamide], the pIC50 in test [1] was 7.13; with Ba/F3-BCR-ABL1-WT cells, 8.35; on ABL1 (64-515) [3] it was 8.38.
For `CN(C)C(=O)c1ccc(-c2cc(C(=O)Nc3ccc(OC(F)(F)Cl)cc3)cnc2N2CC[C@@H](O)C2)[nH]1` [Example 73, (R)—N-(4-(Chlorodifluoromethoxy)phenyl)-5-(5-(dimethylcarbamoyl)-1H-pyrrol-2-yl)-6-(3-hydroxypyrrolidin-1-yl)nicotinamide], in that order: 8.15, 9.40 and 8.96.
For the compound `O=C(Nc1ccc(OC(F)(F)Cl)cc1)c1ccc(N2C[C@H](O)[C@@H](O)C2)c(-c2ccn[nH]2)c1` [Example 77, N-(4-(Chlorodifluoromethoxy)phenyl)-4-((3S,4S)-3,4-dihydroxypyrrolidin-1-yl)-3-(1H-pyrazol-5-yl)benzamide], the pIC50 was 7.12 in test [1], 8.39 with Ba/F3-BCR-ABL1-WT cells and 9.15 at ABL1 (64-515) [3].
For `O=C(Nc1ccc(OC(F)(F)Cl)cc1)c1cnc(N2CCC[C@H](O)C2)c(-c2ccn[nH]2)c1` [Example 86, (S)—N-(4-(Chlorodifluoromethoxy)phenyl)-6-(3-hydroxypiperidin-1-yl)-5-(1H-pyrazol-5-yl)nicotinamide], the values for the pIC50 at ABL1 (64-515) [2] and on ABL1 (64-515) [3] were 8.40 and 8.82, respectively.
Regarding `O=C(Nc1ccc(OC(F)(F)Cl)cc1)c1cnc(N2CCC[C@@H](O)C2)c(-c2ccn[nH]2)c1` [Example 87, (R)—N-(4-(Chlorodifluoromethoxy)phenyl)-6-(3-hydroxypiperidin-1-yl)-5-(1H-pyrazol-5-yl)nicotinamide], the results for the pIC50 at ABL1 (64-515) [2] and on ABL1 (64-515) [3] were 8.52 and 8.89, respectively.
As for `Cc1cn(-c2cc(NC(=O)c3ccc(C)c(Nc4nccc(-c5cccnc5)n4)c3)cc(C(F)(F)F)c2)cn1` [nilotinib], the “time until acquired resistance” value with BCR-ABL1+KCL-22 cells was in the range of 18 to 21 days.
